# Experimental data published in US9532949B2, “Intraperitoneally-administered nanocarriers that release their therapeutic load based on the inflammatory environment of cancers” (STC.UNM, priority 2011, dated 2017).
# Columns and labels:
# macrophages = assay: Generation of ROS by activated macrophages (CellROX, flow cytometry); type: cell-based; conditions: PMA 1 μM for 30 minutes, 5 μM CellROX
# Method: H36.12j and RAW264.7 macrophages cell line was obtained from American Type Cell Culture (ATCC, Manassas, Va.). H36.12j cells were grown in Delbecco's Modified Eagles Medium (ATTC, Manassas, Va.) supplemented with 10% (v/v) Heat-inactivated iron bovine calf serum. Propagation was at 37° C. in 5% carbon dioxide. RAW264.7 cells were grown in Delbecco's Modified Eagles Medium (ATTC, Manassas, Va.) supplemented with 10% (v/v) fetal bovine serum. Propagation was at 37° C. in 10% carbon dioxide.
# Cells (0.2×10^6 in 500 uL media) were pipetted into each well of 24-well plate. Cells were stimulated with phorbol-12-myristate-13-acetate (PMA), (Sigma—Saint Louis, Mo.) at a final concentration of 1 μM for 30 minutes, followed by an incubation with 5 μM CellROX (Invitrogen) for 30 minutes to detect ROS. Fluorescence was then determined by flow cytometry.
# [1] = Photochemical ozone production catalyzed by amino acids in cell-free system (indigo carmine absorbance at 610 nm); conditions: for Ozone production: 1 mM amino acid or 5 mg/mL BSA, 10 μM 6-biopterin, UVA irradiation, 30 μM indigo carmine
# Method: FIG. 4. Ozone production catalyzed by amino acids in cell-free system in presence of 10 μM 6-biopterin and with UVA irradiation. Tubes also contained 30 μM indigo carmine which got converted by ozone to isatin sulfonic acid as detected by a decrease in absorbance at 610 nm. 1 mM of each amino acid and 5 mg/mL BSA in phosphate buffer were tested. Error bars represent standard deviation for three replicates.
# FIG. 5. Both UVA and 6BP are required to generate ozone by tryptophan. 1 mM Trp was tested. Error bars represent standard deviation for three replicates.
# FIG. 6. Dose response curve for generation of ozone by increasing concentrations of Trp. Tested concentrations were 0, 10, 20, 40, 80 & 160, 500, 1000 μM tryptophan. Higher concentrations 500 μM and 1 mM Trp are not shown as they gave similar results to 160 μM. Error bars represent standard deviation for three replicates.
# We successfully generated ozone (a molecule with the chemical signature of ozone) in a cell-free system by employing a photochemical source i.e. by adding a photosensitizer and exposing the tube contents to UVA irradiation. Our findings are summarized in this section. Four amino acids (tryptophan, methionine, cysteine, and histidine), but not other amino acids were reported to have the same catalytic activity as antibodies needed for water oxidation to produce ozone along with increasing bactericidal activity of neutrophils by employing a photochemical source. For our preliminary studies we used amino acids as the simplest mechanism to generate ozone. The photosensitizer we used is 6-biopterin (Sigma-Aldrich, St Louis, Mo.), and the UVA irradiation (315-400 nm) was provided by an ozone-free 1000W Xenon arc lamp as a solar simulator with blocking UVB radiation by appropriate filters (Oriel Instruments, Stratford, Conn.). The output of UVA radiation was confirmed and was measured by a UV meter (Model 3D, Solar Light, Glenside, Pa.) to be 6 mW/cm^2; we exposed the samples for 4 minutes. Ozone was detected through its conversion of indigo carmine (a blue dye with absorbance maximum at 610 nm) to isatin sulfonic acid (colorless) as we monitored this conversion by measuring absorbance at 610 nm as previously described.
# The platform we plan to use employs supported lipid bilayers (SLBs) on porous silica. We will test the disruption of SLBs by ozone employing the above described system to generate ozone photochemically by Trp. […] Disruption of the SLB by TX 100 caused release of the encapsulated fluorescein (14 fold increase in fluorescence by TX100 vs. untreated spheres).
# [2] = Disruption of supported lipid bilayer on porous silica spheres by Triton X-100, release of fluorescein; conditions: 5% (w/v) Triton X-100; 3 μm porous silica spheres, egg PC bilayer, supernatant fluorescence
# Method: FIG. 7. Disruption of lipid bilayer by Triton X-100. 3 μm silica spheres with 50 Å nominal pore size were incubated with 5 mM fluorescein then coated with a lipid bilayer made of egg phosphatidyl choline. Part of spheres was left with no treatment, and part was treated with Triton X-100 (TX 100) at a final concentration of 5% (w/v). Fluorescence of the supernatant after sedimenting the spheres was examined to check for release of fluorescein.
# The platform we plan to use employs supported lipid bilayers (SLBs) on porous silica. We will test the disruption of SLBs by ozone employing the above described system to generate ozone photochemically by Trp. For detecting disruption of the SLB we tested the proof-of-concept by adding Triton X-100 (TX 100) to spheres encapsulating fluorescein within 3 microns porous silica (Macherey-Nagel, Germany) followed by forming the SLB as previously described (FIG. 7). Disruption of the SLB by TX 100 caused release of the encapsulated fluorescein (14 fold increase in fluorescence by TX100 vs. untreated spheres).
# From the text for OVCA cells: For all above experiments, DOX will be added directly to cells as a positive control after determining the optimal concentration of the drug to be used to cause at least 70% cytotoxicity. […] Negative controls include (1) absence of ROS either by not activating macrophages; and (2) addition of nanocarriers devoid of DOX but with generation of ROS. Data will be collected in triplicates and comparisons will be done using a non-parametric Welch's two sample t-test where any p-value below 0.05 will be considered statistically significant.
# However, for the nanocarriers, 72 hr may allow internalization of the nanocarriers and release of DOX regardless of presence of ROS.
compound,measurement,setting,value
"COc1cccc2c1C(=O)c1c(O)c3c(c(O)c1C2=O)C[C@@](O)(C(=O)CO)C[C@@H]3O[C@H]1C[C@H](N)[C@H](O)[C@H](C)O1 [DOX, doxorubicin]",Cytotoxicity (cell death),OVCA cells,96%
same,Cytotoxicity,"OVCA cells; 1 μM DOX, 24 hr incubation",~45%
"CCCCCCCCCCCCCC(=O)O[C@@H]1[C@@H](C)[C@@]2(O)[C@@H](C=C(CO)C[C@]3(O)C(=O)C(C)=C[C@@H]23)[C@@H]2C(C)(C)[C@]12OC(C)=O [PMA, phorbol-12-myristate-13-acetate]",Generation of ROS by macrophages,macrophages,ROS was generated
N[C@@H](Cc1c[nH]c2ccccc12)C(=O)O [tryptophan],"Conversion of singlet oxygen to ozone, dose response",[1]; 0-1000 μM tryptophan,dose-dependent manner
same,Ozone production,[1],photochemically generated ozone
same,Ozone production,[1]; listed as Tryptophan,highest level of ozone
same,Water oxidation (ozone generation) by tryptophan alone,"[1]; without 6-biopterin and UVA exposure, 1 mM Trp",not capable of water oxidation
Triton X-100 [TX 100],Increase in fluorescence (release of encapsulated fluorescein) vs. untreated spheres,[2],14 fold
